Columns and labels:
Type in all cases: physicochemical
[1] = Accelerated test (40° C., 75% relative humidity); settings: 40° C. and 75% relative humidity
Description: (§1) The conditions and methods of related substance test involved in this invention were in accordance with HPLC (Appendix VD of Chinese Pharmacopoeia Edition 2005).
(§2) Chromatographic conditions and system applicability: octadecylsilane bonded silica as the filler; 0.01 mol/L of potassium dihydrogen phosphate (adjusted to pH 3.5 by phosphoric acid)-methanol-acetonitrile (80:15:5) as the mobile phase; detection wavelength was 240 nm; the number of theoretical plates should be not less than 2000, calculated according to the peak of 3-(4-amino-1-oxo-1,3-dihydro-2H-isoindole-2-yl)-piperidine-2,6-dione. The resolution of the peak of 3-(4-amino-1-oxo-1,3-dihydro-2H-isoindole-2-yl)-piperidine-2,6-dione from the peaks of adjacent impurities should meet requirements.
(§3) The raw material of Polymorph I of 3-(4-amino-1-oxo-1,3-dihydro-2H-isoindole-2-yl)-piperidine-2,6-dione (hemihydrate) was hermetically packed in plastic bags of polyethylene film and put in thermostatic and humidostatic incubator at 40±2° C. and 75±5% relative humidity for six months. Sample was tested at the end of the 1st, 2nd, 3rd and 6th month respectively and the results were contrasted with that of the zeroth month. Results were listed in Tab. 5. After accelerated test at 40° C. for six months, the X-ray powder diffraction pattern was shown in FIG. 11; DSC diagram was in FIG. 12-1; TGA diagram was in FIG. 12-2
as §3, with “Polymorph II” for “Polymorph I”, “3-(4-amino-1-oxo-1,3-dihydro-2H-isoindole-2-yl)-piperidine-2,6-dione” for “3-(4-amino-1-oxo-1,3-dihydro-2H-isoindole-2-yl)-piperidine-2,6-dione (hemihydrate)”, “Tab. 10.” for “Tab. 5.”, “FIG. 22;” for “FIG. 11;”, “FIG. 23-1;” for “FIG. 12-1;”, “FIG. 23-2” for “FIG. 12-2”
as §3, with “Polymorph III” for “Polymorph I”, “3-(4-amino-1-oxo-1,3-dihydro-2H-isoindole-2-yl)-piperidine-2,6-dione” for “3-(4-amino-1-oxo-1,3-dihydro-2H-isoindole-2-yl)-piperidine-2,6-dione (hemihydrate)”, “Tab. 15.” for “Tab. 5.”, “FIG. 33;” for “FIG. 11;”, “FIG. 34-1;” for “FIG. 12-1;”, “FIG. 34-2” for “FIG. 12-2”

[2] = High temperature test (60° C.); settings: for Appearance / Content / Related substance: 60° C.; for Variation of appearance and content (in words): high temperature (60° C.) test, summary
Description: as §1, §2
The raw material of Polymorph I of 3-(4-amino-1-oxo-1,3-dihydro-2H-isoindole-2-yl)-piperidine-2,6-dione (hemihydrate) was put into a clean sealed glass bottle and then put in thermostatic drying chamber at 60° C. Sample was tested at the 5th and 10th day respectively and the results were contrasted with that of the Day 0. Results were listed in Tab. 3. After high temperature test of 60° C. for 10 days, the X-ray powder diffraction pattern was shown FIG. 7; DSC diagram was in FIG. 8.
The raw material of Polymorph II of 3-(4-amino-1-oxo-1,3-dihydro-2H-isoindole-2-yl)-piperidine-2,6-dione was put into a clean sealed glass bottle and then put in thermostatic drying chamber at 60° C. Sample was tested at the 5th and 10th day respectively and the results were contrasted with that of the Day 0. Results were listed in Tab. 8. After high temperature test of 60° C. for 10 days, the X-ray powder diffraction pattern was shown in FIG. 18; DSC diagram was in FIG. 19.
The raw material of Polymorph III of 3-(4-amino-1-oxo-1,3-dihydro-2H-isoindole-2-yl)-piperidine-2,6-dione was put into a clean sealed glass bottle and then put in thermostatic drying chamber at 60° C. Sample was tested at the 5th and 10th day respectively and the results were contrasted with that of the Day 0. Results were listed in Tab. 13. After high temperature test of 60° C. for 10 days, the X-ray powder diffraction pattern was shown in FIG. 29; DSC diagram was in FIG. 30.

[3] = Photostability test (strong illumination); settings: for Appearance / Content / Related substance: 4500±500 Lx; for Variation of appearance and content (in words): photostability (illumination) test, summary
Description: as §1, §2
The Polymorph I of 3-(4-amino-1-oxo-1,3-dihydro-2H-isoindole-2-yl)-piperidine-2,6-dione (hemihydrate) was distributed homogeneously in open petri dish with the thickness of the raw material not more than 5 mm, and the distance was adjusted to make illumination intensity at 4500±500 Lx. Sample was tested at the 5th and 10th day respectively and the results were contrasted with that of the Day 0. Results were listed in Tab. 2. After strong illumination for 10 days, the X-ray powder diffraction pattern was shown in FIG. 5; DSC diagram of the Polymorph I of 3-(4-amino-1-oxo-1,3-dihydro-2H-isoindole-2-yl)-piperidine-2,6-dione (hemihydrate) was in FIG. 6.
The Polymorph II of 3-(4-amino-1-oxo-1,3-dihydro-2H-isoindole-2-yl)-piperidine-2,6-dione was distributed homogeneously in open petri dish with the thickness of the raw material not more than 5 mm and the distance was adjusted to make illumination intensity at 4500±500 Lx. Sample was tested at the 5th and 10th day respectively and the results were contrasted with that of the Day 0. Results were listed in Tab. 7. After strong illumination for 10 days, the X-ray powder diffraction pattern was shown in FIG. 16; DSC diagram was in FIG. 17
The Polymorph III of 3-(4-amino-1-oxo-1,3-dihydro-2H-isoindole-2-yl)-piperidine-2,6-dione was distributed homogeneously in open petri dish with the thickness of the raw material not more than 5 mm and the distance was adjusted to make illumination intensity at 4500±500 Lx. Sample was tested at the 5th and 10th day respectively and the results were contrasted with that of the Day 0. Results were listed in Tab. 12. After strong illumination for 10 days, the X-ray powder diffraction pattern was shown in FIG. 27; DSC diagram was in FIG. 28

Appearance ([1]; 0 months) | Content ([1]; 0 months) | Related substance ([1]; 0 months) | Appearance ([1]; 1 month) | Content ([1]; 1 month) | Related substance ([1]; 1 month) | Appearance ([1]; 2 months) | Content ([1]; 2 months) | Related substance ([1]; 2 months) | Appearance ([1]; 3 months) | Content ([1]; 3 months) | Related substance ([1]; 3 months) | Appearance ([1]; 6 months) | Content ([1]; 6 months) | Related substance ([1]; 6 months) | Appearance ([2]; 0 days) | Content ([2]; 0 days) | Related substance ([2]; 0 days) | Appearance ([2]; 5 days) | Content ([2]; 5 days) | other results | SMILES
off-white powder | 99.86% | 0.07% | off-white powder | 99.81% | 0.07% | off-white powder | 99.76% | 0.07% | off-white powder | 99.71% | 0.08% | off-white powder | 99.62% | 0.08% | off-white powder | 99.86% | 0.07% | off-white powder | 99.84% | Related substance ([2]; 5 days): 0.07%; Appearance ([2]; 10 days): off-white powder; Content ([2]; 10 days): 99.83%; Related substance ([2]; 10 days): 0.08%; Variation of appearance and content (in words) [2]: few significant variation; Appearance ([3]; 0 days): off-white powder; Content ([3]; 0 days): 99.86%; Related substance ([3]; 0 days): 0.07%; Appearance ([3]; 5 days): off-white powder; Content ([3]; 5 days): 99.85%; Related substance ([3]; 5 days): 0.07%; Appearance ([3]; 10 days): off-white powder; Content ([3]; 10 days): 99.85%; Related substance ([3]; 10 days): 0.07%; Variation of appearance and content (in words) [3]: few significant variation | Nc1cccc2c1CN(C1CCC(=O)NC1=O)C2=O (single isomer, unassigned) [Polymorph III, 3-(4-amino-1-oxo-1,3-dihydro-2H-isoindole-2-yl)-piperidine-2,6-dione]
Off-white powder | 99.87% | 0.05% | Off-white powder | 99.85% | 0.05% | Off-white powder | 99.81% | 0.05% | Off-white powder | 99.78% | 0.06% | Off-white powder | 99.75% | 0.07% | off-white powder | 99.87% | 0.05% | off-white powder | 99.86% | Related substance ([2]; 5 days): 0.05%; Appearance ([2]; 10 days): off-white powder; Content ([2]; 10 days): 99.84%; Related substance ([2]; 10 days): 0.06%; Variation of appearance and content (in words) [2]: few significant variation; Appearance ([3]; 0 days): off-white powder; Content ([3]; 0 days): 99.87%; Related substance ([3]; 0 days): 0.05%; Appearance ([3]; 5 days): off-white powder; Content ([3]; 5 days): 99.85%; Related substance ([3]; 5 days): 0.05%; Appearance ([3]; 10 days): off-white powder; Content ([3]; 10 days): 99.86%; Related substance ([3]; 10 days): 0.05%; Variation of appearance and content (in words) [3]: few significant variation | Nc1cccc2c1CN(C1CCC(=O)NC1=O)C2=O (single isomer, unassigned) [Polymorph I, 3-(4-amino-1-oxo-1,3-dihydro-2H-isoindole-2-yl)-piperidine-2,6-dione]
off-white powder | 99.89% | 0.09% | off-white powder | 99.85% | 0.09% | off-white powder | 99.77% | 0.10% | off-white powder | 99.72% | 0.10% | off-white powder | 99.68% | 0.12% | Off-white powder | 99.89% | 0.09% | Off-white powder | 99.86% | Related substance ([2]; 5 days): 0.09%; Appearance ([2]; 10 days): Off-white powder; Content ([2]; 10 days): 99.87%; Related substance ([2]; 10 days): 0.10%; Variation of appearance and content (in words) [2]: few significant variation; Appearance ([3]; 0 days): off-white powder; Content ([3]; 0 days): 99.89%; Related substance ([3]; 0 days): 0.09%; Appearance ([3]; 5 days): off-white powder; Content ([3]; 5 days): 99.89%; Related substance ([3]; 5 days): 0.09%; Appearance ([3]; 10 days): off-white powder; Content ([3]; 10 days): 99.88%; Related substance ([3]; 10 days): 0.09%; Variation of appearance and content (in words) [3]: few significant variation | Nc1cccc2c1CN(C1CCC(=O)NC1=O)C2=O (single isomer, unassigned) [Polymorph II, 3-(4-amino-1-oxo-1,3-dihydro-2H-isoindole-2-yl)-piperidine-2,6-dione]
